This is an account of results in article PMC5218480 (PLoS ONE, 2017).

The structures appear in SMILES notation.

In the assay the test system is MV-4-11 cells. Nature of the assay: Gene expression microarray analysis (Affymetrix PrimeView) and GSEA. The format is cell-based, human. More on the design: RFU PODN (11730768_x_at) / Fold change /veh PODN (11730768_x_at) / RFU LINC00158 (11744669_a_at) / Fold change /veh LINC00158 (11744669_a_at) / RFU DUSP10 (11751237_a_at) / Fold change /veh DUSP10 (11751237_a_at) / RFU ID3 (11757404_x_at) / Fold change /veh ID3 (11757404_x_at) / RFU PLEKHG5 (11737974_s_at) / Fold change /veh PLEKHG5 (11737974_s_at) / RFU LRRC4B (11730491_at) / Fold change /veh LRRC4B (11730491_at) / RFU GIMAP4 (11747438_a_at) / Fold change /veh GIMAP4 (11747438_a_at) / RFU KRT8 (11758183_x_at) / Fold change /veh KRT8 (11758183_x_at) / RFU CNN1 (11734310_a_at) / Fold change /veh CNN1 (11734310_a_at) / RFU VPS37D (11726825_at) / Fold change /veh VPS37D (11726825_at) / RFU C10orf10 (11716522_x_at) / Fold change /veh C10orf10 (11716522_x_at) / RFU KIR2DL2 /// KIR2DL4 /// KIR2DL5A /// KIR2DL5B /// KIR2DS1 /// KIR2DS2 /// KIR2DS3 /// KIR2DS4 /// KIR3DL3 /// KIR3DL3 /// KIR3DS1 (11738374_at) / Fold change /veh KIR2DL2 /// KIR2DL4 /// KIR2DL5A /// KIR2DL5B /// KIR2DS1 /// KIR2DS2 /// KIR2DS3 /// KIR2DS4 /// KIR3DL3 /// KIR3DL3 /// KIR3DS1 (11738374_at) / RFU C1QL1 (11718748_at) / Fold change /veh C1QL1 (11718748_at) / RFU TMPRSS4 (11747572_a_at) / Fold change /veh TMPRSS4 (11747572_a_at) / RFU HAMP (11756126_x_at) / Fold change /veh HAMP (11756126_x_at) / RFU RNFT2 (11725882_a_at) / Fold change /veh RNFT2 (11725882_a_at) / RFU NR4A2 (11747474_a_at) / Fold change /veh NR4A2 (11747474_a_at) / RFU ABCC12 (11746883_a_at) / Fold change /veh ABCC12 (11746883_a_at) / RFU TMEM136 (11760407_x_at) / Fold change /veh TMEM136 (11760407_x_at) / RFU CLDN22 /// WWC2 (11732394_at) / Fold change /veh CLDN22 /// WWC2 (11732394_at) / RFU HLA-DPB1 (11760878_x_at) / Fold change /veh HLA-DPB1 (11760878_x_at) / RFU SPINT1 (11716480_a_at) / Fold change /veh SPINT1 (11716480_a_at) / RFU GAP43 (11754022_s_at) / Fold change /veh GAP43 (11754022_s_at) / RFU A4GNT (11735810_at) / Fold change /veh A4GNT (11735810_at) / RFU PRB3 (11715151_x_at) / Fold change /veh PRB3 (11715151_x_at) / RFU TUBB4B (11761932_at) / Fold change /veh TUBB4B (11761932_at) / RFU CAPN14 (11732068_a_at) / Fold change /veh CAPN14 (11732068_a_at) / RFU TMCC2 (11721928_a_at) / Fold change /veh TMCC2 (11721928_a_at) / RFU IRGQ (11745062_a_at) / Fold change /veh IRGQ (11745062_a_at) / RFU FAM174B (11720279_a_at) / Fold change /veh FAM174B (11720279_a_at) / RFU TMPRSS4 (11748680_a_at) / Fold change /veh TMPRSS4 (11748680_a_at) / RFU FAM212B (11763350_a_at) / Fold change /veh FAM212B (11763350_a_at) / RFU PLEKHG5 (11743358_a_at) / Fold change /veh PLEKHG5 (11743358_a_at) / RFU ZSCAN30 (11745921_a_at) / Fold change /veh ZSCAN30 (11745921_a_at) / RFU CMKLR1 (11741424_a_at) / Fold change /veh CMKLR1 (11741424_a_at) / RFU LOC101060620 /// MAPK8IP1 (11723275_at) / Fold change /veh LOC101060620 /// MAPK8IP1 (11723275_at) / RFU SPTSSB (11747773_x_at) / Fold change /veh SPTSSB (11747773_x_at) / RFU PRSS12 (11739890_at) / Fold change /veh PRSS12 (11739890_at) / RFU BIN1 (11741810_x_at) / Fold change /veh BIN1 (11741810_x_at) / RFU WNT11 (11732464_a_at) / Fold change /veh WNT11 (11732464_a_at) / RFU C10orf10 (11716521_a_at) / Fold change /veh C10orf10 (11716521_a_at) / RFU C5orf56 (11738089_at) / Fold change /veh C5orf56 (11738089_at) / RFU CYB561 (11721691_x_at) / Fold change /veh CYB561 (11721691_x_at) / RFU ANKRD19P (11752326_a_at) / Fold change /veh ANKRD19P (11752326_a_at) / RFU OR2T12 /// OR2T33 /// OR2T8 (11738714_s_at) / Fold change /veh OR2T12 /// OR2T33 /// OR2T8 (11738714_s_at) / RFU VCAN (11748164_a_at) / Fold change /veh VCAN (11748164_a_at) / RFU JSRP1 (11732532_at) / Fold change /veh JSRP1 (11732532_at) / RFU KRTAP10-11 (11738290_x_at) / Fold change /veh KRTAP10-11 (11738290_x_at) / RFU MYO3A (11730013_a_at) / Fold change /veh MYO3A (11730013_a_at) / RFU EBF3 (11725865_a_at) / Fold change /veh EBF3 (11725865_a_at) / RFU CAMK2N1 (11719241_x_at) / Fold change /veh CAMK2N1 (11719241_x_at) / RFU C5orf56 (11738088_a_at) / Fold change /veh C5orf56 (11738088_a_at) / RFU OLFML3 (11715873_a_at) / Fold change /veh OLFML3 (11715873_a_at) / RFU LOC100653217 /// NTM (11731650_a_at) / Fold change /veh LOC100653217 /// NTM (11731650_a_at) / RFU MAPK11 (11762145_a_at) / Fold change /veh MAPK11 (11762145_a_at) / RFU FIZ1 (11724087_x_at) / Fold change /veh FIZ1 (11724087_x_at) / RFU OASL (11726364_x_at) / Fold change /veh OASL (11726364_x_at) / RFU SOX15 (11748057_x_at) / Fold change /veh SOX15 (11748057_x_at) / RFU CD79A (11719716_a_at) / Fold change /veh CD79A (11719716_a_at) / RFU HIST1H1D (11736915_at) / Fold change /veh HIST1H1D (11736915_at) / RFU CASKIN2 (11723855_a_at) / Fold change /veh CASKIN2 (11723855_a_at) / RFU LOC730098 (11760151_x_at) / Fold change /veh LOC730098 (11760151_x_at) / RFU OR4N2 (11742367_at) / Fold change /veh OR4N2 (11742367_at) / RFU PRRT2 (11749266_a_at) / Fold change /veh PRRT2 (11749266_a_at) / RFU SNX32 (11753110_a_at) / Fold change /veh SNX32 (11753110_a_at) / RFU CDHR5 (11726645_a_at) / Fold change /veh CDHR5 (11726645_a_at) / RFU RCAN1 (11760418_a_at) / Fold change /veh RCAN1 (11760418_a_at) / RFU FAM167A (11723789_a_at) / Fold change /veh FAM167A (11723789_a_at) / RFU FAM26E (11764081_at) / Fold change /veh FAM26E (11764081_at) / RFU ISYNA1 (11749810_s_at) / Fold change /veh ISYNA1 (11749810_s_at) / RFU ACY1 (11761880_at) / Fold change /veh ACY1 (11761880_at) / RFU 11764098_at / Fold change /veh 11764098_at / RFU SAMD14 (11745864_x_at) / Fold change /veh SAMD14 (11745864_x_at) / RFU NPB (11741838_a_at) / Fold change /veh NPB (11741838_a_at) / RFU TMPRSS6 (11731388_a_at) / Fold change /veh TMPRSS6 (11731388_a_at) / RFU KRTAP10-2 (11738614_at) / Fold change /veh KRTAP10-2 (11738614_at) / RFU ARHGAP8 /// PRR5-ARHGAP8 (11727945_x_at) / Fold change /veh ARHGAP8 /// PRR5-ARHGAP8 (11727945_x_at) / RFU KRTAP5-7 /// NADSYN1 (11734609_at) / Fold change /veh KRTAP5-7 /// NADSYN1 (11734609_at) / RFU RASL12 (11751679_a_at) / Fold change /veh RASL12 (11751679_a_at) / RFU CDKN2B (11736163_a_at) / Fold change /veh CDKN2B (11736163_a_at) / RFU PRF1 (11729649_at) / Fold change /veh PRF1 (11729649_at) / RFU, ZNF638 /// ZNF638-IT1 / Fold change vs veh, ZNF638 /// ZNF638-IT1 / RFU, PANK3 / Fold change vs veh, PANK3 / RFU, SH3YL1 / Fold change vs veh, SH3YL1 / RFU, ZEB2 / Fold change vs veh, ZEB2 / RFU, NRIP1 / Fold change vs veh, NRIP1 / RFU, PTTG1IP / Fold change vs veh, PTTG1IP / RFU, CAPN2 / Fold change vs veh, CAPN2 / RFU, MED14 / Fold change vs veh, MED14 / RFU, SNORA58 / Fold change vs veh, SNORA58 / RFU, C1orf63 / Fold change vs veh, C1orf63 / RFU, LRRFIP1 / Fold change vs veh, LRRFIP1 / RFU, NDUFAF7 / Fold change vs veh, NDUFAF7 / RFU, SLC12A2 / Fold change vs veh, SLC12A2 / RFU, IBTK / Fold change vs veh, IBTK / RFU, ESF1 / Fold change vs veh, ESF1 / Fold change vs veh, TMEM50B / RFU, TAOK1 / Fold change vs veh, TAOK1 / RFU, ACBD3 / Fold change vs veh, ACBD3 / RFU, TMA16 / Fold change vs veh, TMA16 / RFU, RWDD3 / Fold change vs veh, RWDD3 / RFU, BCAT1 / Fold change vs veh, BCAT1 / RFU, EDEM3 / Fold change vs veh, EDEM3 / RFU, TMEM33 / Fold change vs veh, TMEM33 / RFU, WDR75 / Fold change vs veh, WDR75 / RFU, AHCTF1 / Fold change vs veh, AHCTF1 / RFU, TFRC / Fold change vs veh, TFRC / RFU, ZDHHC17 / Fold change vs veh, ZDHHC17 / RFU, NOM1 / Fold change vs veh, NOM1 / RFU, ARL8B / Fold change vs veh, ARL8B / RFU, ZBTB11 / Fold change vs veh, ZBTB11 / RFU, TAMM41 / Fold change vs veh, TAMM41 / RFU, KIAA1704 /// LOC100996395 / Fold change vs veh, KIAA1704 /// LOC100996395 / RFU, ING1 / Fold change vs veh, ING1 / RFU, TRMT61B / Fold change vs veh, TRMT61B / RFU, FUBP3 / Fold change vs veh, FUBP3 / RFU, TP53 / Fold change vs veh, TP53 / RFU, TNKS2 / Fold change vs veh, TNKS2 / RFU, ZFP14 / Fold change vs veh, ZFP14 / RFU, ACTR2 / Fold change vs veh, ACTR2 / RFU, PPP3R1 / Fold change vs veh, PPP3R1 / RFU, PIK3R1 / Fold change vs veh, PIK3R1 / RFU, HNRNPA1 / Fold change vs veh, HNRNPA1 / RFU, RNF170 / Fold change vs veh, RNF170 / RFU, ZNF28 / Fold change vs veh, ZNF28 / RFU, RNGTT / Fold change vs veh, RNGTT / RFU, OGT / Fold change vs veh, OGT / RFU, BRD1 / Fold change vs veh, BRD1 / RFU, MARS / Fold change vs veh, MARS / RFU, ZNF655 / Fold change vs veh, ZNF655 / RFU, FAHD1 / Fold change vs veh, FAHD1 / RFU, BDP1 / Fold change vs veh, BDP1 / RFU, LRRCC1 / Fold change vs veh, LRRCC1 / RFU, ARID1A / Fold change vs veh, ARID1A / RFU, ZNF146 / Fold change vs veh, ZNF146 / RFU, ZNF330 / Fold change vs veh, ZNF330 / RFU, GPN3 / Fold change vs veh, GPN3 / RFU, C9orf123 / Fold change vs veh, C9orf123 / RFU, N4BP2L2 / Fold change vs veh, N4BP2L2 / RFU, ARFIP1 / Fold change vs veh, ARFIP1 / RFU, FAM179B / Fold change vs veh, FAM179B / RFU, BCL10 / Fold change vs veh, BCL10 / RFU, UHRF1BP1L / Fold change vs veh, UHRF1BP1L / RFU, BET1 / Fold change vs veh, BET1 / RFU, CNOT2 / Fold change vs veh, CNOT2 / RFU, ZNF268 / Fold change vs veh, ZNF268 / Fold change vs veh, ZNF507 / RFU, DGCR2 / Fold change vs veh, DGCR2 / RFU, WDSUB1 / Fold change vs veh, WDSUB1 / Fold change vs veh, HSP90B1 /// MIR3652 / RFU, ADSS / Fold change vs veh, ADSS / RFU, GK / Fold change vs veh, GK / RFU, ZNF148 / Fold change vs veh, ZNF148 / RFU, TAF9 / Fold change vs veh, TAF9 / RFU, SLC1A5 / Fold change vs veh, SLC1A5 / RFU, SLMO2 / Fold change vs veh, SLMO2 / RFU, ABCC4 / Fold change vs veh, ABCC4 / RFU, LOC101060439 /// RAP1B / Fold change vs veh, LOC101060439 /// RAP1B / RFU, RFX7 / Fold change vs veh, RFX7 / RFU, GTPBP10 / Fold change vs veh, GTPBP10 / RFU, CNEP1R1 / Fold change vs veh, CNEP1R1 / RFU, BIVM-ERCC5 /// ERCC5 / Fold change vs veh, BIVM-ERCC5 /// ERCC5 / RFU, ILF3 / Fold change vs veh, ILF3 / RFU 11762660_at / Fold change /veh 11762660_at / RFU VCAN (11757783_s_at) / Fold change /veh VCAN (11757783_s_at) / RFU DDX43 (11728927_at) / Fold change /veh DDX43 (11728927_at) / RFU KRT8 (11758188_x_at) / Fold change /veh KRT8 (11758188_x_at) / RFU NKD1 (11759106_at) / Fold change /veh NKD1 (11759106_at) / RFU SRD5A1 (11742802_a_at) / Fold change /veh SRD5A1 (11742802_a_at) / RFU TPSAB1 /// TPSB2 (11721975_s_at) / Fold change /veh TPSAB1 /// TPSB2 (11721975_s_at) / RFU GSTM3 (11746129_a_at) / Fold change /veh GSTM3 (11746129_a_at) / RFU IL23R (11737362_x_at) / Fold change /veh IL23R (11737362_x_at) / RFU TMEM51 (11727254_a_at) / Fold change /veh TMEM51 (11727254_a_at) / RFU PIWIL2 (11732686_x_at) / Fold change /veh PIWIL2 (11732686_x_at) / RFU ORM1 (11744905_x_at) / Fold change /veh ORM1 (11744905_x_at) / RFU CCDC152 (11743942_at) / Fold change /veh CCDC152 (11743942_at) / RFU ECM1 (11717891_a_at) / Fold change /veh ECM1 (11717891_a_at) / RFU IL23R (11748794_a_at) / Fold change /veh IL23R (11748794_a_at) / RFU TNFAIP8L3 (11732012_x_at) / Fold change /veh TNFAIP8L3 (11732012_x_at) / RFU MBOAT4 (11741988_at) / Fold change /veh MBOAT4 (11741988_at) / RFU 11764193_at / Fold change /veh 11764193_at / RFU TMEM53 (11763286_at) / Fold change /veh TMEM53 (11763286_at) / RFU MAGEB2 (11727129_at) / Fold change /veh MAGEB2 (11727129_at) / RFU TMEM200A (11744735_a_at) / Fold change /veh TMEM200A (11744735_a_at) / RFU CCDC152 (11751479_a_at) / Fold change /veh CCDC152 (11751479_a_at) / RFU FAM211A (11726209_a_at) / Fold change /veh FAM211A (11726209_a_at) / RFU RGS16 (11746705_a_at) / Fold change /veh RGS16 (11746705_a_at) / RFU VCAN (11755009_s_at) / Fold change /veh VCAN (11755009_s_at) / RFU RHOB (11743442_s_at) / Fold change /veh RHOB (11743442_s_at) / RFU RGS16 (11720943_a_at) / Fold change /veh RGS16 (11720943_a_at) / RFU RGS16 (11720944_at) / Fold change /veh RGS16 (11720944_at) / RFU, VPS4B / Fold change vs veh, VPS4B / RFU, CREB1 / Fold change vs veh, CREB1 / RFU, DNAJC13 / Fold change vs veh, DNAJC13 / RFU, GNAQ / Fold change vs veh, GNAQ / RFU, CDK5R1 / Fold change vs veh, CDK5R1 / RFU, ZRANB3 / Fold change vs veh, ZRANB3 / RFU, CUL4A / Fold change vs veh, CUL4A / RFU, CCNY / Fold change vs veh, CCNY / RFU, UFL1 / Fold change vs veh, UFL1 / RFU, COG3 / Fold change vs veh, COG3 / RFU, DIAPH2 / Fold change vs veh, DIAPH2 / RFU, SKA2 / Fold change vs veh, SKA2 / RFU, AFF3 / Fold change vs veh, AFF3 / RFU, LMF1 / Fold change vs veh, LMF1 / RFU, IPO11 / Fold change vs veh, IPO11 / RFU, DFFB / Fold change vs veh, DFFB / RFU, FOXP1 / Fold change vs veh, FOXP1 / RFU, CARD8 / Fold change vs veh, CARD8 / RFU, STRN3 / Fold change vs veh, STRN3 / RFU, ADK / Fold change vs veh, ADK / RFU, RASSF2 / Fold change vs veh, RASSF2 / RFU, WIPF1 / Fold change vs veh, WIPF1 / RFU, LARP1B / Fold change vs veh, LARP1B / RFU, RASA1 / Fold change vs veh, RASA1 / RFU, RB1 / Fold change vs veh, RB1 / RFU, PPFIA1 / Fold change vs veh, PPFIA1 / RFU, MAT2A / Fold change vs veh, MAT2A / RFU, CCT5 / Fold change vs veh, CCT5 / RFU, WDR92 / Fold change vs veh, WDR92 / RFU, CUX1 / Fold change vs veh, CUX1 / RFU, TTC7A / Fold change vs veh, TTC7A / RFU, TMEM135 / Fold change vs veh, TMEM135 / RFU, DEPTOR / Fold change vs veh, DEPTOR / RFU, CPM / Fold change vs veh, CPM / RFU, DNAJB6 / Fold change vs veh, DNAJB6 / RFU, CACNA2D3 / Fold change vs veh, CACNA2D3 / RFU, DTX4 / Fold change vs veh, DTX4 / RFU, TFCP2 / Fold change vs veh, TFCP2 / RFU, GMCL1 /// GMCL1P1 / Fold change vs veh, GMCL1 /// GMCL1P1 / RFU, AEBP2 / Fold change vs veh, AEBP2 / RFU, SNHG1 /// SNORD22 /// SNORD25 /// SNORD26 /// SNORD27 /// SNORD28 /// SNORD29 /// SNORD31 / Fold change vs veh, SNHG1 /// SNORD22 /// SNORD25 /// SNORD26 /// SNORD27 /// SNORD28 /// SNORD29 /// SNORD31 / Fold change (Aza/veh), C12orf56 (ProbeSet 11735607_a_at) / Fold change (ACY-1035/veh), C12orf56 (ProbeSet 11735607_a_at) / Fold change (Aza/veh), FGFR1OP (ProbeSet 11751329_s_at) / Fold change (ACY-1035/veh), FGFR1OP (ProbeSet 11751329_s_at) / Fold change (Aza/veh), VPS36 (ProbeSet 11739960_a_at) / Fold change (ACY-1035/veh), VPS36 (ProbeSet 11739960_a_at) / RFU SYPL1 (11715823_x_at) / Fold change /veh SYPL1 (11715823_x_at) / RFU IGFBP7 (11715501_s_at) / Fold change /veh IGFBP7 (11715501_s_at) / RFU REEP3 (11722064_at) / Fold change /veh REEP3 (11722064_at) / RFU IGLL1 (11728026_x_at) / Fold change /veh IGLL1 (11728026_x_at): dose or concentration left out as unconfirmed. The following applies: MV-4-11 cells, 48 hours.

As for `Nc1ccc(-c2cccs2)cc1NC(=O)c1ccc2c(c1)cc(C1CC1)n2CCN1CCOCC1` [ACY-1035], the “Fold change /veh TMPRSS4 (11747572_a_at)” value was 1.09.
